From patent US9963462B2 (priority 2015, dated 2018)

Experiments:
[1] = target: SNAP-hSPR (sepiapterin reductase, SPR) (Homo sapiens, UniProt P35270); assay: biochemical; type: binding; conditions: terbium labelled SNAP-hSPR / SSZ labelled SNAP-EGFP; read-out: hTR-FRET IC50
Description: TR-FRET Assay: A TR-FRET (homogeneous, time-resolved, fluorescence resonance energy transfer) assay was used to assess activity of compounds following standard assay conditions. […] Compounds were screened at different concentrations and IC50 values calculated.
Terbium labelled SNAP-hSPR and SSZ (sulfasalazine) labelled SNAP-EGFP were used as the protein pair in this assay. Compounds were screened at different concentrations, and 1050 and Kd values calculated.

[2] = system: BH4 levels in SK-N-BE (2) cells; assay: SKN-N-BE (2) cellular assay, BH4 levels by LC-MS; type: cell-based; conditions: Homo sapiens, SKNBE2, read-out: SK-N-BE(2) IC50, SK-N-BE (2) cells, BH4 levels by LC-MS

Chain of SNAP-hSPR (sepiapterin reductase, SPR) (P35270 whole entry): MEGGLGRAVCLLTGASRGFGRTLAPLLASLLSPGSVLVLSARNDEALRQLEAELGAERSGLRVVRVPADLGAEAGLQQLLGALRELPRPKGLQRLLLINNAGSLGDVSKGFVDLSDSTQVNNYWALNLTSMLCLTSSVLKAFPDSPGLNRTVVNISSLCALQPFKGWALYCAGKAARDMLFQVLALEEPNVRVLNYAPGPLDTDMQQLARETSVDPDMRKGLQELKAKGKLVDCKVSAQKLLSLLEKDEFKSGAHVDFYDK

SMILES | IC50 [1] [nM] | IC50 [2] [nM]
Cc1c(C(=O)N2CC[C@H](C)C[C@@H]2C(F)(F)F)cnn1-c1nc2c(c(=O)[nH]1)CCC2 (racemic) [Q-0480] | 9 | 300
Cc1cc(=O)[nH]c(-n2ncc(C(=O)N3CCc4ccccc4[C@@H]3C)c2C)n1 (single isomer, unassigned) [Q-0339] | 9 | 1500
Cc1cc(=O)[nH]c(-n2ncc(C(=O)N3CCc4ccccc4[C@H]3C)c2C)n1 (single isomer, unassigned) [Q-0340] | 7 | 1100
Cc1cc(=O)[nH]c(-n2ncc(C(=O)N3c4ccccc4C[C@H]3C)c2C)n1 (single isomer, unassigned) [Q-0361] | 10 | 600
Cc1cc(=O)[nH]c(-n2ncc(C(=O)N3c4ccccc4C[C@@H]3C)c2C)n1 (single isomer, unassigned) [Q-0372] | 5 | 300
Cc1c(C(=O)N2c3ccccc3C[C@H]2C)cnn1-c1nc2ccsc2c(=O)[nH]1 (single isomer, unassigned) [Q-0414] | 6 | 300
Cc1c(C(=O)N2c3ccccc3C[C@@H]2C)cnn1-c1nc2ccsc2c(=O)[nH]1 (single isomer, unassigned) [Q-0415] | 30 | 1200
Cc1nc(-n2ncc(C(=O)N3c4ccccc4C[C@H]3C)c2C)[nH]c(=O)c1C (single isomer, unassigned) [Q-0416] | 20 | 2800
Cc1c(C(=O)N2CCC[C@@H](C(F)(F)F)C2)cnn1-c1nc2c(c(=O)[nH]1)CCC2 (single isomer, unassigned) [Q-0474] | 7 | 600
Cc1c(C(=O)N2CCC[C@H](C(F)(F)F)C2)cnn1-c1nc2c(c(=O)[nH]1)CCC2 (single isomer, unassigned) [Q-0475] | 5 | 300
Cc1cc(=O)[nH]c(-n2ncc(C(=O)N3CCc4ccccc43)c2C)n1 [Q-0001] | 20 | 2700
Cc1cc(=O)[nH]c(-n2nc(C)c(CCC(=O)Nc3ccc(Cl)cc3)c2C)n1 [Q-0009] | 300 | 22000
Cc1cc(=O)[nH]c(-n2ncc(C(=O)NC3CCCC3)c2C)n1 [Q-0280] | 60 | 16000
Cc1cc(=O)[nH]c(-n2nc(C)c(CCC(=O)N3CCCC3)c2C)n1 [Q-0281] | 60 | 9000
CCN1CCN(C(=O)c2cnn(-c3nc(C)c(C)c(=O)[nH]3)c2C)CC1 [Q-0282] | 30 | 4400
Cc1cc(=O)[nH]c(-n2ncc(C(=O)N3CCc4ccc(C(F)(F)F)cc4C3)c2C)n1 [Q-0298] | 20 | 1500
Cc1cc(=O)[nH]c(-n2ncc(C(=O)N3CCN(c4ccccn4)CC3)c2C)n1 [Q-0299] | 5 | 1200
Cc1cc(=O)[nH]c(-n2ncc(C(=O)N3CCc4cccnc4C3)c2C)n1 [Q-0300] | 9 | 5000
Cc1cc(=O)[nH]c(-n2ncc(C(=O)N3Cc4ccccc4C3)c2C)n1 [Q-0302] | 9 | 1200
Cc1cc(=O)[nH]c(-n2ncc(C(=O)N3c4ccccc4CC3C)c2C)n1 (stereo not drawn) [Q-0303] | 7 | 900
Cc1cc(=O)[nH]c(-n2ncc(C(=O)N3CCS(=O)(=O)CC3)c2C)n1 [Q-0304] | 40 | 67000
Cc1cc(=O)[nH]c(-n2ncc(C(=O)NC34CC5CC(CC(C5)C3)C4)c2C)n1 [Q-0305] | 30 | 4600

SMILES | IC50 [1] [nM] | IC50 [2] [nM]
COc1ccc2c(c1)CN(C(=O)c1cnn(-c3nc(C)cc(=O)[nH]3)c1C)CC2 [Q-0307] | 9 | 4200
Cc1cc(=O)[nH]c(-n2ccc(C(=O)N3CCc4ccccc4C3)n2)n1 [Q-0308, 6-methyl-2-[3-(1,2,3,4-tetrahydroisoquinoline-2-carbonyl)-1H-pyrazol-1-yl]-3,4-dihydropyrimidin-4-one] | 20 | 2000
COC(=O)c1cnn(-c2nc(C)cc(=O)[nH]2)c1C [Q-0310] | 60 | 12000
Cc1cc(=O)[nH]c(-n2ncc(CN3CCc4ccccc4C3)c2C)n1 [Q-0311] | 40 | 11000
Cc1cc(=O)[nH]c(-n2cc(C(=O)N3CCc4ccccc4C3)nn2)n1 [Q-0312, 6-methyl-2-[4-(1,2,3,4-tetrahydroisoquinoline-2-carbonyl)-1H-1,2,3-triazol-1-yl]-3,4-dihydropyrimidin-4-one] | 20 | 10000
Cc1cc(=O)[nH]c(-n2ncc(C(=O)N3CCc4ccccc4C3C)c2C)n1 (stereo not drawn) [Q-0313] | 6 | 1500
Cc1cc(=O)[nH]c(-n2cc(C(=O)N3CCc4ccccc4C3)cn2)n1 [Q-0314] | 20 | 5800
Cc1cc(=O)[nH]c(-n2ncc(C(=O)N(C)C)c2C)n1 [Q-0317] | 60 | 20000
Cc1cc(=O)[nH]c(-n2ncc(C(=O)N(C)Cc3ccccc3)c2C)n1 [Q-0318] | 6 | 2100
Cc1cc(=O)[nH]c(-n2ncc(C(=O)N3CCc4ccccc4C3)c2C(C)C)n1 [Q-0319] | 10 | 2200
Cc1c(C(=O)N2CCc3ccccc3C2)cnn1-c1nc2ccccc2c(=O)[nH]1 [Q-0323] | 300 | 35000
Cc1cc(=O)[nH]c(-n2ncc(C(=O)N3CCc4ccc(S(=O)(=O)N5CCOCC5)cc4C3)c2C)n1 [Q-0327] | 7 | 12000
Cc1cc(=O)[nH]c(-n2ncc(C(=O)N3CCc4cn[nH]c4C3)c2C)n1 [Q-0328] | 10 | 53000
Cc1cc(=O)[nH]c(-n2ncc(C(=O)N3C4CCC3CC4)c2C)n1 [Q-0329] | 10 | 3500
Cc1cc(=O)[nH]c(-n2ncc(C(=O)NC3CCCC3)c2C(C)C)n1 [Q-0330] | 20 | 6100
Cc1cc(=O)[nH]c(-n2ncc(C(=O)NC3CCCC3)c2C(F)F)n1 [Q-0331] | 80 | 15000
Cc1cc(=O)[nH]c(-n2ncc(C(=O)N3CCc4ccccc4C3)c2C(F)F)n1 [Q-0332] | 10 | 2500
Cc1cc(=O)[nH]c(-n2ccc(C(=O)NC3CCCC3)n2)n1 [Q-0333] | 20 | 12000
Cc1cc(=O)[nH]c(-n2ncc(C(=O)NC3CCCC3)c2C(F)(F)F)n1 [Q-0334] | 80 | 49000
Cc1cc(=O)[nH]c(-n2ncc(C(=O)N3CCC(C)(C)C3)c2C)n1 [Q-0341] | 5 | 1800
Cc1cc(=O)[nH]c(-n2ncc(C(=O)N3CCc4ccccc4C3)c2C(F)(F)F)n1 [Q-0342] | 10 | 2400
Cc1cc(=O)[nH]c(-n2ccc(C(=O)N3CCOCC3)n2)n1 [Q-0343] | 100 | 40000

SMILES | IC50 [1] [nM] | IC50 [2] [nM]
Cc1cc(=O)[nH]c(-n2ncc(C(=O)NCc3cnccn3)c2C)n1 [Q-0344] | 70 | 23000
Cc1cc(=O)[nH]c(-n2ncc(C(=O)N3CCc4[nH]ncc4C3)c2C)n1 [Q-0345] | 10 | 78000
CCCN(C)C(=O)c1cnn(-c2nc(C)cc(=O)[nH]2)c1C [Q-0346] | 8 | 5300
CCCN(CC)C(=O)c1cnn(-c2nc(C)cc(=O)[nH]2)c1C [Q-0347] | 10 | 7500
CCN(CC)C(=O)c1cnn(-c2nc(C)cc(=O)[nH]2)c1C [Q-0348] | 10 | 6400
Cc1cc(=O)[nH]c(-n2ncc(C(=O)N3CCOCC3)c2C(F)F)n1 [Q-0349] | 30 | 57000
CCN(C)C(=O)c1cnn(-c2nc(C)cc(=O)[nH]2)c1C [Q-0350] | 20 | 11000
CCCN(CCC)C(=O)c1cnn(-c2nc(C)cc(=O)[nH]2)c1C [Q-0351] | 10 | 4600
Cc1cc(=O)[nH]c(-n2ncc(C(=O)N3CCOCC3)c2C)n1 [Q-0352] | 20 | 13000
Cc1cc(=O)[nH]c(-n2ncc(C(=O)N3CCc4ccccc4C3)c2CC(C)C)n1 [Q-0353] | 50 | 15000
Cc1cc(=O)[nH]c(-n2ncc(C(=O)N3CCc4ccccc4C3)c2Cc2ccccc2)n1 [Q-0358] | 100 | 22000
Cc1cc(=O)[nH]c(-n2ncc(C(=O)N3CCC(C(F)(F)F)CC3)c2C)n1 [Q-0359] | 3 | 1100
Cc1cc(=O)[nH]c(-n2ncc(C(=O)NC3CCCc4ccccc43)c2C)n1 (stereo not drawn) [Q-0362] | 20 | 2900
Cc1cc(=O)[nH]c(-n2ncc(C(=O)NC3CCc4ccccc43)c2C)n1 (stereo not drawn) [Q-0363] | 30 | 5800
Cc1cc(=O)[nH]c(-n2ncc(C(=O)NCC(F)(F)C(F)(F)F)c2C)n1 [Q-0364] | 70 | 16000
Cc1cc(=O)[nH]c(-n2nc(C(=O)N3CCc4ccccc4C3)cc2C)n1 [Q-0365, 6-methyl-2-[5-methyl-3-(1,2,3,4-tetrahydroisoquinoline-2-carbonyl)-1H-pyrazol-1-yl]-3,4-dihydropyrimidin-4-one] | 50 | 12000
Cc1cc(=O)[nH]c(-n2cc(C)c(C(=O)N3CCc4ccccc4C3)n2)n1 [Q-0366] | 400 | 128000
Cc1cc(=O)[nH]c(-n2ncc(C(=O)NCCC(F)(F)F)c2C)n1 [Q-0367] | 70 | 11000
Cc1cc(=O)[nH]c(-n2ncc(C(=O)N3CCCC(C(F)(F)F)C3)c2C)n1 (stereo not drawn) [Q-0368] | 10 | 2900
Cc1cc(=O)[nH]c(-n2ncc(C(=O)N3CCN(c4ccccn4)CC3)c2Cc2ccccc2)n1 [Q-0369] | 200 | 28000
Cc1cc(=O)[nH]c(-n2ncc(C(=O)NC3CCCC3)c2Cc2ccccc2)n1 [Q-0370] | 100 | 22000
Cc1cc(=O)[nH]c(-n2ncc(C(=O)N3CCC(C)(C)C3)c2CC(C)C)n1 [Q-0371] | 70 | 14000
